Experimental data: article PMC8219695 (Nature Communications, 2021)
Values joined by “and” are separate entries in the source; they are usually repeats but may differ in a detail not shown here. Equal values may be shown once.

Columns and labels:
[1] = test system: C57BL/6 mice; assay: Tail-flick dose-response in C57BL/6 mice; assay type: in vivo, mouse; conditions: for ED50: Mus musculus, 0.25 h, read-out: ED50 (95% CI) tail-flick, n = 10; for mouse tail-flick assay (%MPE): 15 minute time point, individual animals
Method: CD1 mice (n = 10), at peak analgesic time point. […] Dose–response curves of 22 (s.c.), in the tail-flick assay was evaluated 15 min post drug administration in WT, C57 mice (n = 8) and MOR KO mice (n = 5). Each point represents mean ± SEM.
(§1) For analgesic dose–response experiments, male CD1 mice (20–32 g), 6–8 weeks were obtained from Charles River Laboratories and male C57BL/6 mice (22–30 g), 8–15 weeks were obtained from Jackson Lab (Bar Harbor, ME) and housed 5 mice per cage in a vivarium following an IACUC-approved protocol. For male C57BL/6 mice temperature was kept constant at 22 ± 2 °C, and relative humidity was maintained at 50 ± 5%. For male CD1 mice (20–32 g) the temperature was in the range of 20–26 °C and relative humidity maintained within the range of 30–70%. Mice were given access to food and tap water ad libitum. All mice used throughout the manuscript were opioid naïve. All mice were maintained on a 12 h light/dark cycle with Purina rodent chow and water available ad libitum and housed in groups of five until testing.
Tail-flick antinociception was determined using the radiant heat tail-flick technique using an Ugo Basile model 37360 instrument as previously described[95],[96]. The intensity was set to achieve a baseline between 2 and 3 s. Baseline latencies were determined before experimental treatments for all mice. Tail-flick antinociception was assessed as an increase in baseline latency, with a maximal 15 s latency to minimize damage to the tail. Data were analyzed as percent maximal effect, % MPE, and was calculated according to the formula: % MPE = [(observed latency – baseline latency)/(maximal latency – baseline latency)] × 100. Compounds were injected s.c. and antinociception was assessed at the peak effect. Mice were tested for analgesia with cumulative subcutaneous doses of the drug until the mouse can withstand the maximal latency. Once the mouse reached the maximal latency, the mouse was no longer given higher doses. […] In vivo experiments were evaluated using GraphPad Prism 8, San Diego, CA as described above.
96-well plate (no. 60050; Perkin Elmer; Waltham, MA, USA). At time zero, the luciferase substrate coelenterazine H (5 μM) was added to each well. Ligands were added after 5 min, then BRET signal was measured 10 min later. BRET measurements were performed using a PHERAstar FS plate reader (BMG Labtech, Cary, NC, USA). The BRET signal was calculated as the ratio of the light emitted by the mVenus […]
Dose–response curves were fit using a three-parameter logistic equation in GraphPad Prism 8 (Graphpad Software, La Jolla, CA, USA).
All experiments were repeated in at least three independent trials each with triplicate determinations.
as §1, with “dose-response” for “dose–response”, “g),6-8” for “g), 6–8”, “20-26” for “20–26”, “30-70%.” for “30–70%.”
For analgesic testing in knockout animals, wild-type, male C57BL/6 mice (22–33 g), 10-12 weeks were purchased from the Jackson Lab (Bar Harbor, ME). These mice were kept at a constant temperature of 22 ± 2 °C, and relative humidity was maintained at 40-50%. Exon-1/Exon-11 MOR-1 KO mice on a C57 background were bred in the Pintar laboratory at Rutgers University. All mice were maintained on a 12- […]

[2] = biological target: T1, mMOR (Mus musculus, UniProt P42866); assay: BRET-based Nb33 recruitment assay at mMOR; assay type: cell-based; conditions: for Nb33 BRET assay at mMOR, response: single replicates, source data Fig 7a; for Emax mMOR: Nb33 BRET; for Emax mMOR / Emax: relative to DAMGO; for Emax: read-out: Emax mMOR, Nb33 BRET
T1 construct: signal peptide (heterologous, not specified) (N); expressed in transfected cells; pcDNA3.1(+) construct made in house
T1 sequence (P42866 whole entry): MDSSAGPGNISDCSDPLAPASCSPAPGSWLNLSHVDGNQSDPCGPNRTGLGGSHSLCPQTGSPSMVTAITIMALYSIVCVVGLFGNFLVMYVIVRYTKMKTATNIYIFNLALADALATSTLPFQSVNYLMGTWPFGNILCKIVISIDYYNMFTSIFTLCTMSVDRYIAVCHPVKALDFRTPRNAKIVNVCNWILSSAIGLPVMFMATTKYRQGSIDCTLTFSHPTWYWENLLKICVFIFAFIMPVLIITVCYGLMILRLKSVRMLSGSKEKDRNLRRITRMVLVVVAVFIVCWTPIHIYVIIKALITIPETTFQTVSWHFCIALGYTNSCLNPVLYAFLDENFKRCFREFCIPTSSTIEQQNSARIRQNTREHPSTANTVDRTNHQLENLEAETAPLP

[3] = sc, s.c., 15 min time point, C57BL/6 mice

CC[C@@H]1CN2CC[C@@]3(O)C(=Nc4cccc(OC)c43)[C@@H]2C[C@@H]1/C(=C\OC)C(=O)OC [7OH, 7-Hydroxymitragynine, reference compound]
ED50 [1, 3]: 0.25 mg/kg | mouse tail-flick assay (%MPE) ([1]; dose 0.1, s.c., listed as 7-OH mitragynine): 5.405 %MPE and 8.511 %MPE and 8.661 %MPE and 16.5289 %MPE and 34.8214 %MPE and 6.87 %MPE and 7.627 %MPE and -5.556 %MPE and 0.7299 %MPE and 3.6036 %MPE | mouse tail-flick assay (%MPE) ([1]; dose 0.3, s.c., listed as 7-OH mitragynine): 36.036 %MPE and 12.0567 %MPE and 36.2205 %MPE and 44.6281 %MPE and 52.6786 %MPE and 100 %MPE (3×) and 73.7288 %MPE and 72.2628 %MPE | mouse tail-flick assay (%MPE) ([1]; dose 1, s.c.): 100 %MPE | analgesic efficacy (Emax) ([1]; s.c., 15 min time point, C57BL/6 mice, 7OH normalized to 100%): 100% | EC50 [2]: 15 nM | Nb33 BRET assay at mMOR, response ([2]; Log[drug] (M) -5, listed as 7-OH Mitragynine): 31.8558 and 13.6622 and 18.9084 and 19.9525 and 1.3915 and 5.568 and 5.853 and 2.0473 and 9.468 | Nb33 BRET assay at mMOR, response ([2]; Log[drug] (M) -6, listed as 7-OH Mitragynine): 11.2448 and 12.7863 and 8.673 and 7.158 and -2.301 and 5.3956 and -5.256 and 15.8192 and 11.2218 | Nb33 BRET assay at mMOR, response ([2]; Log[drug] (M) -7, listed as 7-OH Mitragynine): 34.9577 and 9.119 and 11.9292 and 16.603 and 7.256 and -0.02541 and 7.483 and 5.463 and 3.637 | Nb33 BRET assay at mMOR, response ([2]; Log[drug] (M) -8, listed as 7-OH Mitragynine): 18.0513 and 18.0293 and 14.3718 and -0.3281 and -6.115 and -12.1072 and 6.0021 and 5.2851 and -7.797 | Nb33 BRET assay at mMOR, response ([2]; Log[drug] (M) -9, listed as 7-OH Mitragynine): -7.335 and -6.503 and -1.285 and -14.3312 and -4.26 and -7.41 and 7.337 and -0.23 and -1.333 | Nb33 BRET assay at mMOR, response ([2]; Log[drug] (M) -10, listed as 7-OH Mitragynine): -7.162 and 6.7364 and 17.2382 and -2.279 and -1.22 and 15.6435 and -10.3312 and 4.394 and -8.638 | Nb33 BRET assay at mMOR, response ([2]; Log[drug] (M) -11, listed as 7-OH Mitragynine): 8.105 and -10.4588 and 2.354 and -4.559 and 5.739 and -1.18 and -4.753 and 4.633 and 0.1195 | Emax mMOR [2]: ~ 20% | Emax [2]: ~14%

CC[C@@H]1CN2CC[C@@]3(O)C(=Nc4cc(F)cc(OC)c43)[C@@H]2C[C@@H]1/C(=C\OC)C(=O)OC [11-F-7OH (22), 11-Fluoro-7-hydroxymitragynine]
ED50 [1, 3]: 0.18 mg/kg | mouse tail-flick assay (%MPE) ([1]; dose 0.1, s.c.): 1.681 %MPE and 10.3175 %MPE and -0.885 %MPE and 20.8955 %MPE and 3.731 %MPE and 1.653 %MPE and 0.813 %MPE and 15.7895 %MPE and 6.383 %MPE and 0 %MPE | mouse tail-flick assay (%MPE) ([1]; dose 0.3, s.c.): 0.8403 %MPE and 3.1746 %MPE and -13.2743 %MPE and 18.6567 %MPE and 7.463 %MPE and 12.3967 %MPE and 9.7561 %MPE and 0 %MPE and 87.9433 %MPE and 12.2137 %MPE | mouse tail-flick assay (%MPE) ([1]; dose 1, s.c.): 68.0672 %MPE and 18.254 %MPE and 1.77 %MPE and 24.6269 %MPE and 3.731 %MPE and 5.785 %MPE and 8.943 %MPE and 18.0451 %MPE and 87.234 %MPE and 3.053 %MPE | mouse tail-flick assay (%MPE) ([1]; dose 3, s.c.): 18.4874 %MPE and 30.1587 %MPE and 45.1327 %MPE and 31.3433 %MPE and 5.97 %MPE and 7.438 %MPE and 17.8862 %MPE and 23.3083 %MPE and 30.4964 %MPE and 6.87 %MPE | mouse tail-flick assay (%MPE) ([1]; dose 10, s.c.): 6.723 %MPE and 21.4286 %MPE and -9.735 %MPE and 22.3881 %MPE and 14.9254 %MPE and 0 %MPE and 17.0732 %MPE and 28.5714 %MPE and 55.3192 %MPE and 12.9771 %MPE | analgesic efficacy (Emax) ([1]; mouse, in vivo, sc): 21% | Nb33 BRET assay at mMOR, response ([2]; Log[drug] (M) -5, listed as C11-F-7OH (22)): 6.583 and -1.77 and -4.813 and -2.626 and -1.32 and 4.487 and 18.3783 and 26.5383 and 5.598 and 5.585 and 0.2094 and 5.293 | Nb33 BRET assay at mMOR, response ([2]; Log[drug] (M) -6, listed as C11-F-7OH (22)): 0.6338 and 14.8405 and 14.4384 and 1.573 and -3.3849 and 2.324 and 3.469 and 13.567 and 11.5483 and 6.799 and 5.845 and 11.4048 | Nb33 BRET assay at mMOR, response ([2]; Log[drug] (M) -7, listed as C11-F-7OH (22)): 2.525 and -4.237 and 5.069 and -13.128 and 0.1228 and -1.54 and 7.378 and 4.077 and 0.2648 and 1.54 and -4.687 and 9.074 | Nb33 BRET assay at mMOR, response ([2]; Log[drug] (M) -8, listed as C11-F-7OH (22)): 0.2904 and 1.436 and 1.352 and 1.678 and 1.793 and -7.9215 and -6.277 and -6.486 and -0.06826 and 14.2168 and -0.06924 and 8.399 | Nb33 BRET assay at mMOR, response ([2]; Log[drug] (M) -9, listed as C11-F-7OH (22)): -2.727 and 5.58 and 0.2255 and 4.116 and 4.119 and -5.256 and -3.689 and -9.68 and 0.5281 and 3.825 and 2.847 and -6.097 | Nb33 BRET assay at mMOR, response ([2]; Log[drug] (M) -10, listed as C11-F-7OH (22)): 3.545 and 0.5186 and 8.52 and 1.379 and 2.542 and 3.339 and 3.8632 and -1.052 and 9.1269 and 14.9582 and 6.739 and 3.3642 | Nb33 BRET assay at mMOR, response ([2]; Log[drug] (M) -11, listed as C11-F-7OH (22)): 21.3407 and -2.769 and 15.6698 and -2.476 and 2.836 and -0.3605 and -4.304 and -16.5097 and 20.8133 and -2.923 and -1.5757 and 4.499 | Emax mMOR [2]: near the detection limit of the assay | Emax [2]: < 10%
